Measured values from article PMC6409085, “Three odorant-binding proteins are involved in the behavioral response of Sogatella furcifera to rice plant volatiles” (PeerJ, 2019).
Values joined by “and” are separate entries in the source; they are usually repeats but may differ in a detail not shown here. Identical values can stand only once.

Experiments:
S. furcifera adults = assay: Y-tube olfactometer behavioral trials; assay type: in vivo, Sogatella furcifera; conditions: odorant 50 µL/L vs hexane; adults
Method in brief: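 Single S. furcifera adults (2 days post-emergence, starved 0.5 h) chose between odorant (100 µL of 50 µL/L on filter paper) and hexane control in a glass Y-tube, charcoal-filtered humidified air 300 mL/min per arm, 25 ± 1 °C, 50% RH. Choice scored if insect passed half an arm and stayed >1 min within 10 min; 45 insects per compound, chi-squared test.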

SfurOBP2 = SfurOBP2 (Sogatella furcifera, UniProt V5T759); assay: biochemical; assay type: binding
Method in brief: (§1)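 Protein 2.0 µM + 1-NPN 2.0 µM, 50 mM Tris-HCl pH 7.4; competitor odorants 2, 4 … 20 µM final; read 2 min post-addition, ex 337/em 390–490 nm; n=3. K1-NPN from 1-NPN titration/Scatchard; Ki from IC50 corrected for free 1-NPN.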

SfurOBP3 = SfurOBP3 (Sogatella furcifera, UniProt V5T818); assay: biochemical; assay type: binding; conditions: for Fluorescence competitive binding assay, fluorescence intensity: OBP3, three replicate columns
Method in brief: as §1

SfurOBP1 = SfurOBP1 (Sogatella furcifera, UniProt V5T8N5); assay: biochemical; assay type: binding; conditions: for Fluorescence competitive binding assay, fluorescence intensity: OBP1, three replicate columns
Method in brief: as §1

SfurOBP11 = SfurOBP11 (Sogatella furcifera, UniProt V5T6E3); assay: biochemical; assay type: binding
Method in brief: as §1

Sequence of SfurOBP3 (V5T818 entry or part of it): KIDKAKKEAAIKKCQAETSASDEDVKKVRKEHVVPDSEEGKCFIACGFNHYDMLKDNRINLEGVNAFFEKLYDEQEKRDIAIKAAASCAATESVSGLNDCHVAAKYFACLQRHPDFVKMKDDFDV
Sequence of SfurOBP1 (V5T8N5 entry or part of it): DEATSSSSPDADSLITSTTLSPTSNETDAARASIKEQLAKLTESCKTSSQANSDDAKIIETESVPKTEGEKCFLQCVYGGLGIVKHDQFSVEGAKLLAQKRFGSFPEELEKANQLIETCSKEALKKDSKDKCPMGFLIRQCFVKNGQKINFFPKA
Sequence of SfurOBP11 (V5T6E3 entry or part of it): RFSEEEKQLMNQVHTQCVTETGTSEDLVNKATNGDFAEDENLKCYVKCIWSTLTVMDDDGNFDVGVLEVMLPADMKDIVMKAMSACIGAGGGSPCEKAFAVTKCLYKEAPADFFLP
Sequence of SfurOBP2 (V5T759 entry or part of it): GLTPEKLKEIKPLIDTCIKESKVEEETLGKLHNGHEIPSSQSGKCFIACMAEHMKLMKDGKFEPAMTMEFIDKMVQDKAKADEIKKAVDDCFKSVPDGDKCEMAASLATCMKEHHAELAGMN

IC50 (SfurOBP2; SfurOBP2, protein and 1-NPN both 2.0 µM, competitor 2-20 µM, read-out: IC50): 18.2 µM | Fluorescence competitive binding assay, OBP2 (raw fluorescence reading) (SfurOBP2; ligand concentration 2 (unit not given), replicate column 1 of 3): 16746 | Fluorescence competitive binding assay, OBP2 (raw fluorescence reading) (SfurOBP2; ligand concentration 2 (unit not given), replicate column 2 of 3): 14676 | Fluorescence competitive binding assay, OBP2 (raw fluorescence reading) (SfurOBP2; ligand concentration 2 (unit not given), replicate column 3 of 3): 15441 | Fluorescence competitive binding assay, OBP2 (raw fluorescence reading) (SfurOBP2; ligand concentration 4 (unit not given), replicate column 1 of 3): 14875 | Fluorescence competitive binding assay, OBP2 (raw fluorescence reading) (SfurOBP2; ligand concentration 4 (unit not given), replicate column 2 of 3): 15827 | Fluorescence competitive binding assay, OBP2 (raw fluorescence reading) (SfurOBP2; ligand concentration 4 (unit not given), replicate column 3 of 3): 16107 | Fluorescence competitive binding assay, OBP2 (raw fluorescence reading) (SfurOBP2; ligand concentration 6 (unit not given), replicate column 1 of 3): 14243 | Fluorescence competitive binding assay, OBP2 (raw fluorescence reading) (SfurOBP2; ligand concentration 6 (unit not given), replicate column 2 of 3): 15150 | Fluorescence competitive binding assay, OBP2 (raw fluorescence reading) (SfurOBP2; ligand concentration 6 (unit not given), replicate column 3 of 3): 15095 | Fluorescence competitive binding assay, OBP2 (raw fluorescence reading) (SfurOBP2; ligand concentration 8 (unit not given), replicate column 1 of 3): 12994 | Fluorescence competitive binding assay, OBP2 (raw fluorescence reading) (SfurOBP2; ligand concentration 8 (unit not given), replicate column 2 of 3): 13858 | Fluorescence competitive binding assay, OBP2 (raw fluorescence reading) (SfurOBP2; ligand concentration 8 (unit not given), replicate column 3 of 3): 14632 | Fluorescence competitive binding assay, OBP2 (raw fluorescence reading) (SfurOBP2; ligand concentration 10 (unit not given), replicate column 1 of 3): 12524 | Fluorescence competitive binding assay, OBP2 (raw fluorescence reading) (SfurOBP2; ligand concentration 10 (unit not given), replicate column 2 of 3): 13543 | Fluorescence competitive binding assay, OBP2 (raw fluorescence reading) (SfurOBP2; ligand concentration 10 (unit not given), replicate column 3 of 3): 13950 | Fluorescence competitive binding assay, OBP2 (raw fluorescence reading) (SfurOBP2; ligand concentration 12 (unit not given), replicate column 1 of 3): 11798 | Fluorescence competitive binding assay, OBP2 (raw fluorescence reading) (SfurOBP2; ligand concentration 12 (unit not given), replicate column 2 of 3): 13085 | Fluorescence competitive binding assay, OBP2 (raw fluorescence reading) (SfurOBP2; ligand concentration 12 (unit not given), replicate column 3 of 3): 12945 | Fluorescence competitive binding assay, OBP2 (raw fluorescence reading) (SfurOBP2; ligand concentration 14 (unit not given), replicate column 1 of 3): 12191 | Fluorescence competitive binding assay, OBP2 (raw fluorescence reading) (SfurOBP2; ligand concentration 14 (unit not given), replicate column 2 of 3): 12517 | Fluorescence competitive binding assay, OBP2 (raw fluorescence reading) (SfurOBP2; ligand concentration 14 (unit not given), replicate column 3 of 3): 12178 | Fluorescence competitive binding assay, OBP2 (raw fluorescence reading) (SfurOBP2; ligand concentration 16 (unit not given), replicate column 1 of 3): 11027 | Fluorescence competitive binding assay, OBP2 (raw fluorescence reading) (SfurOBP2; ligand concentration 16 (unit not given), replicate column 2 of 3): 11256 | Fluorescence competitive binding assay, OBP2 (raw fluorescence reading) (SfurOBP2; ligand concentration 16 (unit not given), replicate column 3 of 3): 11449 | Fluorescence competitive binding assay, OBP2 (raw fluorescence reading) (SfurOBP2; ligand concentration 18 (unit not given), replicate column 1 of 3): 11299 | Fluorescence competitive binding assay, OBP2 (raw fluorescence reading) (SfurOBP2; ligand concentration 18 (unit not given), replicate column 2 of 3): 11344 | Fluorescence competitive binding assay, OBP2 (raw fluorescence reading) (SfurOBP2; ligand concentration 18 (unit not given), replicate column 3 of 3): 11251 | Fluorescence competitive binding assay, OBP2 (raw fluorescence reading) (SfurOBP2; ligand concentration 20 (unit not given), replicate column 1 of 3): 11544 | Fluorescence competitive binding assay, OBP2 (raw fluorescence reading) (SfurOBP2; ligand concentration 20 (unit not given), replicate column 2 of 3): 11076 | Fluorescence competitive binding assay, OBP2 (raw fluorescence reading) (SfurOBP2; ligand concentration 20 (unit not given), replicate column 3 of 3): 11172 | Fluorescence competitive binding assay, fluorescence intensity (SfurOBP3; ligand concentration 2): 55523 and 54254 and 55950 | Fluorescence competitive binding assay, fluorescence intensity (SfurOBP3; ligand concentration 4): 52204 and 49599 and 49733 | Fluorescence competitive binding assay, fluorescence intensity (SfurOBP3; ligand concentration 6): 48530 and 49919 and 47140 | Fluorescence competitive binding assay, fluorescence intensity (SfurOBP3; ligand concentration 8): 48179 and 44521 and 46350 | Fluorescence competitive binding assay, fluorescence intensity (SfurOBP3; ligand concentration 10): 42323 and 44632 and 41414 | Fluorescence competitive binding assay, fluorescence intensity (SfurOBP3; ligand concentration 12): 39705 and 38987 and 37616 | Fluorescence competitive binding assay, fluorescence intensity (SfurOBP3; ligand concentration 14): 34880 and 34317 and 34633 | Fluorescence competitive binding assay, fluorescence intensity (SfurOBP3; ligand concentration 16): 32423 and 30011 and 29519 | Fluorescence competitive binding assay, fluorescence intensity (SfurOBP3; ligand concentration 18): 30169 and 30976 and 30764 | Fluorescence competitive binding assay, fluorescence intensity (SfurOBP3; ligand concentration 20): 29092 and 31304 and 30368 | binding affinity to SfurOBP3 (in words) (SfurOBP3; SfurOBP3): high binding affinities | IC50 (SfurOBP3; SfurOBP3, protein and 1-NPN both 2.0 µM, competitor 2-20 µM, read-out: IC50): 19 µM | Fluorescence competitive binding assay, fluorescence intensity (SfurOBP1; ligand concentration 2 (μM)): 6708 and 6744 and 6934 | Fluorescence competitive binding assay, fluorescence intensity (SfurOBP1; ligand concentration 4 (μM)): 6359 and 8427 and 6473 | Fluorescence competitive binding assay, fluorescence intensity (SfurOBP1; ligand concentration 6 (μM)): 6867 and 6865 and 7375 | Fluorescence competitive binding assay, fluorescence intensity (SfurOBP1; ligand concentration 8 (μM)): 8143 and 7305 and 8959 | Fluorescence competitive binding assay, fluorescence intensity (SfurOBP1; ligand concentration 10 (μM)): 7362 and 11085 and 8523 | Fluorescence competitive binding assay, fluorescence intensity (SfurOBP1; ligand concentration 12 (μM)): 6544 and 7094 and 6753 | Fluorescence competitive binding assay, fluorescence intensity (SfurOBP1; ligand concentration 14 (μM)): 7135 and 7404 and 8089 | Fluorescence competitive binding assay, fluorescence intensity (SfurOBP1; ligand concentration 16 (μM)): 5378 and 6818 and 6356 | Fluorescence competitive binding assay, fluorescence intensity (SfurOBP1; ligand concentration 18 (μM)): 6689 and 7935 and 7391 | Fluorescence competitive binding assay, fluorescence intensity (SfurOBP1; ligand concentration 20 (μM)): 6918 and 6511 and 6565 | IC50 (SfurOBP1; SfurOBP1, protein and 1-NPN both 2.0 µM, competitor 2-20 µM, read-out: IC50): > 20 µM | IC50 (SfurOBP11; SfurOBP11, protein and 1-NPN both 2.0 µM, competitor 2-20 µM, read-out: IC50): > 20 µM | Fluorescence intensity, fluorescence competitive binding assay, OBP11 (SfurOBP11; ligand concentration 2, replicate 1): 32108 | Fluorescence intensity, fluorescence competitive binding assay, OBP11 (SfurOBP11; ligand concentration 2, replicate 2): 31162 | Fluorescence intensity, fluorescence competitive binding assay, OBP11 (SfurOBP11; ligand concentration 2, replicate 3): 30215 | Fluorescence intensity, fluorescence competitive binding assay, OBP11 (SfurOBP11; ligand concentration 4, replicate 1): 28342 | Fluorescence intensity, fluorescence competitive binding assay, OBP11 (SfurOBP11; ligand concentration 4, replicate 2): 28762 | Fluorescence intensity, fluorescence competitive binding assay, OBP11 (SfurOBP11; ligand concentration 4, replicate 3): 29181 | Fluorescence intensity, fluorescence competitive binding assay, OBP11 (SfurOBP11; ligand concentration 6, replicate 1): 25372 | Fluorescence intensity, fluorescence competitive binding assay, OBP11 (SfurOBP11; ligand concentration 6, replicate 2): 24386 | Fluorescence intensity, fluorescence competitive binding assay, OBP11 (SfurOBP11; ligand concentration 6, replicate 3): 25974 | Fluorescence intensity, fluorescence competitive binding assay, OBP11 (SfurOBP11; ligand concentration 8, replicate 1): 24916 | Fluorescence intensity, fluorescence competitive binding assay, OBP11 (SfurOBP11; ligand concentration 8, replicate 2): 25493 | Fluorescence intensity, fluorescence competitive binding assay, OBP11 (SfurOBP11; ligand concentration 8, replicate 3): 26070 | Fluorescence intensity, fluorescence competitive binding assay, OBP11 (SfurOBP11; ligand concentration 10, replicate 1): 22613 | Fluorescence intensity, fluorescence competitive binding assay, OBP11 (SfurOBP11; ligand concentration 10, replicate 2): 22095 | Fluorescence intensity, fluorescence competitive binding assay, OBP11 (SfurOBP11; ligand concentration 10, replicate 3): 23428 | Fluorescence intensity, fluorescence competitive binding assay, OBP11 (SfurOBP11; ligand concentration 12, replicate 1): 21169 | Fluorescence intensity, fluorescence competitive binding assay, OBP11 (SfurOBP11; ligand concentration 12, replicate 2): 22102 | Fluorescence intensity, fluorescence competitive binding assay, OBP11 (SfurOBP11; ligand concentration 12, replicate 3): 22210 | Fluorescence intensity, fluorescence competitive binding assay, OBP11 (SfurOBP11; ligand concentration 14, replicate 1): 20351 | Fluorescence intensity, fluorescence competitive binding assay, OBP11 (SfurOBP11; ligand concentration 14, replicate 2): 23661 | Fluorescence intensity, fluorescence competitive binding assay, OBP11 (SfurOBP11; ligand concentration 14, replicate 3): 21671 | Fluorescence intensity, fluorescence competitive binding assay, OBP11 (SfurOBP11; ligand concentration 16, replicate 1): 17887 | Fluorescence intensity, fluorescence competitive binding assay, OBP11 (SfurOBP11; ligand concentration 16, replicate 2): 19544 | Fluorescence intensity, fluorescence competitive binding assay, OBP11 (SfurOBP11; ligand concentration 16, replicate 3): 17889 | Fluorescence intensity, fluorescence competitive binding assay, OBP11 (SfurOBP11; ligand concentration 18, replicate 1): 23369 | Fluorescence intensity, fluorescence competitive binding assay, OBP11 (SfurOBP11; ligand concentration 18, replicate 2): 23675 | Fluorescence intensity, fluorescence competitive binding assay, OBP11 (SfurOBP11; ligand concentration 18, replicate 3): 24479 | Fluorescence intensity, fluorescence competitive binding assay, OBP11 (SfurOBP11; ligand concentration 20, replicate 1): 22182 | Fluorescence intensity, fluorescence competitive binding assay, OBP11 (SfurOBP11; ligand concentration 20, replicate 2): 24009 | Fluorescence intensity, fluorescence competitive binding assay, OBP11 (SfurOBP11; ligand concentration 20, replicate 3): 23801
SMILES: C=CC(C)(O)CCC=C(C)CCC=C(C)C (mixture of isomers) [nerolidol]
number of insects choosing hexane arm (S. furcifera adults): 13 | number of insects choosing volatilies arm (S. furcifera adults): 15 | number of insects failed (no choice) (S. furcifera adults): 12
